Several values for one entry are separate records, joined by “and”; a condition that tells them apart may be missing. Equal values may be shown once.
Tests used:
Experiment in all cases: Kinase inhibitor specificity profiling (Reaction Biology Corporation)
Type in all cases: biochemical
Design in all cases: % Enzyme Activity (relative to DMSO controls): concentration or dose not given beside the values
[1] = target: T1, panel of 370 protein kinases (Homo sapiens, UniProt O15075); conditions: kinase DCAMKL1
T1 construct: purchased Reaction Biology Corporation (assay service)
T1 sequence (O15075 whole entry): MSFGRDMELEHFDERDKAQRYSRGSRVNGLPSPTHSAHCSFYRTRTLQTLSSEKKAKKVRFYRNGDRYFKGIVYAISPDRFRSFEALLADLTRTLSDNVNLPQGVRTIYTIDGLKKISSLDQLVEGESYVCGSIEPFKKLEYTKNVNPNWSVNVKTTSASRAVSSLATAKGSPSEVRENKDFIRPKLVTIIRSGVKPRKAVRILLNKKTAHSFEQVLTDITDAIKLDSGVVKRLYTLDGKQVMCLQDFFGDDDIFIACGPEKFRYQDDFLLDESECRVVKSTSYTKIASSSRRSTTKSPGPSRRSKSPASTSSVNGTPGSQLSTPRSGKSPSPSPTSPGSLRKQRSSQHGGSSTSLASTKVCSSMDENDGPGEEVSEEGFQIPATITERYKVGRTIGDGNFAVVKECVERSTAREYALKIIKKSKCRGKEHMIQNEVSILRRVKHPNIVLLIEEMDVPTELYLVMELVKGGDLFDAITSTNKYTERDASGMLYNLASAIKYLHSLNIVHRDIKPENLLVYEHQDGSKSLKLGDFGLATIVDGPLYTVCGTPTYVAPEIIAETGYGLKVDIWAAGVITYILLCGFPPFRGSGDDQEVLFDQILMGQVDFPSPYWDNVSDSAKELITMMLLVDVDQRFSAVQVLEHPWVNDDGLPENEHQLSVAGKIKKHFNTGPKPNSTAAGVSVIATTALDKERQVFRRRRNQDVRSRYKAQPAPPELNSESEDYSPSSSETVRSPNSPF

[2] = target: T2, panel of 370 protein kinases (Homo sapiens, UniProt P14616); conditions: 2 h, kinase IRR/INSRR; read-out: % Enzyme Activity (relative to DMSO controls)
T2 construct: purchased Reaction Biology Corporation (assay service)

[3] = target: T3, panel of 370 protein kinases (Homo sapiens, UniProt P06213); conditions: 2 h, kinase IR; read-out: % Enzyme Activity (relative to DMSO controls)
T3 construct: purchased Reaction Biology Corporation (assay service)

[4] = target: T4, panel of 370 protein kinases (Homo sapiens, UniProt Q9H422); conditions: 2 h, kinase HIPK3; read-out: % Enzyme Activity (relative to DMSO controls)
T4 construct: purchased Reaction Biology Corporation (assay service)

[5] = target: T5, panel of 370 protein kinases (Homo sapiens, UniProt Q00537); conditions: 2 h, kinase CDK17/cyclin Y (PCTK2); read-out: % Enzyme Activity (relative to DMSO controls)
T5 construct: purchased Reaction Biology Corporation (assay service)

[6] = target: T6, panel of 370 protein kinases (Homo sapiens, UniProt P10721); conditions: 2 h, kinase c-Kit; read-out: % Enzyme Activity (relative to DMSO controls)
T6 construct: purchased Reaction Biology Corporation (assay service)

[7] = target: T7, panel of 370 protein kinases (Homo sapiens, UniProt Q15375); conditions: 2 h, kinase EPHA7; read-out: % Enzyme Activity (relative to DMSO controls)
T7 construct: purchased Reaction Biology Corporation (assay service)

[8] = target: T8, panel of 370 protein kinases (Homo sapiens, UniProt Q99986); conditions: kinase VRK1
T8 construct: purchased Reaction Biology Corporation (assay service)
T8 sequence (Q99986 whole entry): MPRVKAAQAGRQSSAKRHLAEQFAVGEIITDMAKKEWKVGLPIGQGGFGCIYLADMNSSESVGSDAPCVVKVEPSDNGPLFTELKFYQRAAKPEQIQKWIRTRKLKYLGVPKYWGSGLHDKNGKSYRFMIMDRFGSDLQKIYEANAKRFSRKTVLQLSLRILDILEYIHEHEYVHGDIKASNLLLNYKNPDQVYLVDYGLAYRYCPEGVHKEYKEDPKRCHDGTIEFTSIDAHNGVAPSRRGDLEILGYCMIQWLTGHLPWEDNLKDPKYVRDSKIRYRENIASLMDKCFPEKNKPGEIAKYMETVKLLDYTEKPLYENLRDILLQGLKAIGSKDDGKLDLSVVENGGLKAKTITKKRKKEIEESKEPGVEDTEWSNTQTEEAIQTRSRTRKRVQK

[9] = target: T9, panel of 370 protein kinases (Homo sapiens, UniProt Q96SB4); conditions: 2 h, kinase SRPK1; read-out: % Enzyme Activity (relative to DMSO controls)
T9 construct: purchased Reaction Biology Corporation (assay service)

[10] = target: T10, panel of 370 protein kinases (Homo sapiens, UniProt P41743); conditions: 2 h, kinase PKCiota; read-out: % Enzyme Activity (relative to DMSO controls)
T10 construct: purchased Reaction Biology Corporation (assay service)

[11] = target: T11, panel of 370 protein kinases (Homo sapiens, UniProt P48729); conditions: 2 h, kinase CK1a1; read-out: % Enzyme Activity (relative to DMSO controls)
T11 construct: purchased Reaction Biology Corporation (assay service)

[12] = target: T12, panel of 370 protein kinases (Homo sapiens, UniProt P30291); conditions: 2 h, kinase WEE1; read-out: % Enzyme Activity (relative to DMSO controls)
T12 construct: purchased Reaction Biology Corporation (assay service)

[13] = target: T13, panel of 370 protein kinases (Homo sapiens, UniProt P29597); conditions: kinase TYK2
T13 construct: purchased Reaction Biology Corporation (assay service)
T13 sequence (P29597 whole entry): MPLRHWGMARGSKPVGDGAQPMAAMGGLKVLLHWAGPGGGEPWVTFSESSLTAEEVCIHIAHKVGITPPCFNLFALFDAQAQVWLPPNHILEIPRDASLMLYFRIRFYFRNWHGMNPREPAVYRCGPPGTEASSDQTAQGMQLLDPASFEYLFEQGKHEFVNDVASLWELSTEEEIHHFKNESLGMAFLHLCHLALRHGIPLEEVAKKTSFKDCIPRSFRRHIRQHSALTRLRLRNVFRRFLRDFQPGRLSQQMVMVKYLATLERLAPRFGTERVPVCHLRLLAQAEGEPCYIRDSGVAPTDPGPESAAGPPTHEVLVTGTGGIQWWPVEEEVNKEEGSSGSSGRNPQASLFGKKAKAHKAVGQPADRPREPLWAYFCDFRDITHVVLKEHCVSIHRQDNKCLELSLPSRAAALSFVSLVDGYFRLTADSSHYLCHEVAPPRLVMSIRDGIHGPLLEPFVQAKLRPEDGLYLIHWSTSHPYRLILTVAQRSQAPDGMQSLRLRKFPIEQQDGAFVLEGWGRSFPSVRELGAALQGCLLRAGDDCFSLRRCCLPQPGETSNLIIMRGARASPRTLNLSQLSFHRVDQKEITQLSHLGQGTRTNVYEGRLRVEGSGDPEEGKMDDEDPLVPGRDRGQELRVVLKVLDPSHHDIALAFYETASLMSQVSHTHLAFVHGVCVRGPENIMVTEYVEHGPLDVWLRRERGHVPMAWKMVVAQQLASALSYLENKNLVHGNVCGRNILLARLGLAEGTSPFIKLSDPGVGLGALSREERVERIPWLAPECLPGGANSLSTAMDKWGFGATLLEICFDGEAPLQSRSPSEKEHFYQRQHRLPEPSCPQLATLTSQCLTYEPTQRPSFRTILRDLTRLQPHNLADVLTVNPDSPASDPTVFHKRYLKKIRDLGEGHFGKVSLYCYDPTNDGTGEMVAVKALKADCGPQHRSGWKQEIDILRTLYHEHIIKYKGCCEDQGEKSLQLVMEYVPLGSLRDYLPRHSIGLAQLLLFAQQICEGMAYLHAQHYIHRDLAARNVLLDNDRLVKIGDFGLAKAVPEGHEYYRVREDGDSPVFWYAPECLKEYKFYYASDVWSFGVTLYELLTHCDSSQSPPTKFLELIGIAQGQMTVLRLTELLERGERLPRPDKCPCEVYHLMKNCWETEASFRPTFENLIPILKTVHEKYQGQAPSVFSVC

[14] = target: T14, panel of 370 protein kinases (Homo sapiens, UniProt O14965); conditions: 2 h, kinase Aurora A; read-out: % Enzyme Activity (relative to DMSO controls)
T14 construct: purchased Reaction Biology Corporation (assay service)
T14 sequence (O14965 whole entry): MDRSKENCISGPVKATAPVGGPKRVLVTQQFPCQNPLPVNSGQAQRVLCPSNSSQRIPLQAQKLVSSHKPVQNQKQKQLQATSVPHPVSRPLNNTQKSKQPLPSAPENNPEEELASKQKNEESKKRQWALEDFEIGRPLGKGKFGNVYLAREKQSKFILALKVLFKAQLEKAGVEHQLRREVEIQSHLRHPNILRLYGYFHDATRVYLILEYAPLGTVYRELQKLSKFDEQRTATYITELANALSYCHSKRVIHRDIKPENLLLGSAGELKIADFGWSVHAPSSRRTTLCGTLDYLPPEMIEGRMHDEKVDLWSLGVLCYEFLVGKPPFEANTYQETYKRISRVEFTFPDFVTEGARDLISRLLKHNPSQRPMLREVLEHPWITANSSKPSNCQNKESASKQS

[15] = target: T15, panel of 370 protein kinases (Homo sapiens, UniProt Q8N568); conditions: 2 h, kinase DCAMKL2; read-out: % Enzyme Activity (relative to DMSO controls)
T15 construct: purchased Reaction Biology Corporation (assay service)

[16] = target: T16, panel of 370 protein kinases (Homo sapiens, UniProt Q07912); conditions: 2 h, kinase ACK1; read-out: % Enzyme Activity (relative to DMSO controls)
T16 construct: purchased Reaction Biology Corporation (assay service)
T16 sequence (Q07912 whole entry): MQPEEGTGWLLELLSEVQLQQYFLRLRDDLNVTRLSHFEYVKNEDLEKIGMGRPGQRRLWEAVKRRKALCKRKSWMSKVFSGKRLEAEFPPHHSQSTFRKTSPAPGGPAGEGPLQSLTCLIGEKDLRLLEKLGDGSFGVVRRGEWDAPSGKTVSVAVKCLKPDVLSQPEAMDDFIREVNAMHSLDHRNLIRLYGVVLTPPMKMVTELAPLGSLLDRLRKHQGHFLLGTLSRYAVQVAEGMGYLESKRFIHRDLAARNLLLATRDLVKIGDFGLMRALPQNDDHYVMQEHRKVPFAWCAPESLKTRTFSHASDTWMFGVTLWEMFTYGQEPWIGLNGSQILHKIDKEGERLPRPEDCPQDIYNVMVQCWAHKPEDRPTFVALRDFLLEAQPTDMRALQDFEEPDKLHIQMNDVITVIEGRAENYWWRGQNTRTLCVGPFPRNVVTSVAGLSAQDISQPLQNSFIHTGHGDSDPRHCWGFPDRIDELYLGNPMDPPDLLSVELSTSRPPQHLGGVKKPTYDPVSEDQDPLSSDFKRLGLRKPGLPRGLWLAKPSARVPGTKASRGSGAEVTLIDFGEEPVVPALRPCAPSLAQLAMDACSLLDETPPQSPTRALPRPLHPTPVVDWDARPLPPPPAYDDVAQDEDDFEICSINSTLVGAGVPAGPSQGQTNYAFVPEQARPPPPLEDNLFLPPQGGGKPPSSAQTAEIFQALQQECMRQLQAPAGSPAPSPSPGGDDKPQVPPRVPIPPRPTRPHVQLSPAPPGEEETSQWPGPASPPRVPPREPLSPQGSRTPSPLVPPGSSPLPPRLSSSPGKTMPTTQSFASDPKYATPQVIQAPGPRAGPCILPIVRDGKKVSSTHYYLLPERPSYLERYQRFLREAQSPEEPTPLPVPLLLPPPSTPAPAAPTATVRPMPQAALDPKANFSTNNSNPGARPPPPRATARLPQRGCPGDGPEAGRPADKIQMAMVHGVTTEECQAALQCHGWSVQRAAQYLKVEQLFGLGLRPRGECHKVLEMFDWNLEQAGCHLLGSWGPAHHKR

[17] = target: T17, panel of 370 protein kinases (Homo sapiens, UniProt Q16832); conditions: 2 h, kinase DDR2; read-out: % Enzyme Activity (relative to DMSO controls)
T17 construct: purchased Reaction Biology Corporation (assay service)
T17 sequence (Q16832 22-855): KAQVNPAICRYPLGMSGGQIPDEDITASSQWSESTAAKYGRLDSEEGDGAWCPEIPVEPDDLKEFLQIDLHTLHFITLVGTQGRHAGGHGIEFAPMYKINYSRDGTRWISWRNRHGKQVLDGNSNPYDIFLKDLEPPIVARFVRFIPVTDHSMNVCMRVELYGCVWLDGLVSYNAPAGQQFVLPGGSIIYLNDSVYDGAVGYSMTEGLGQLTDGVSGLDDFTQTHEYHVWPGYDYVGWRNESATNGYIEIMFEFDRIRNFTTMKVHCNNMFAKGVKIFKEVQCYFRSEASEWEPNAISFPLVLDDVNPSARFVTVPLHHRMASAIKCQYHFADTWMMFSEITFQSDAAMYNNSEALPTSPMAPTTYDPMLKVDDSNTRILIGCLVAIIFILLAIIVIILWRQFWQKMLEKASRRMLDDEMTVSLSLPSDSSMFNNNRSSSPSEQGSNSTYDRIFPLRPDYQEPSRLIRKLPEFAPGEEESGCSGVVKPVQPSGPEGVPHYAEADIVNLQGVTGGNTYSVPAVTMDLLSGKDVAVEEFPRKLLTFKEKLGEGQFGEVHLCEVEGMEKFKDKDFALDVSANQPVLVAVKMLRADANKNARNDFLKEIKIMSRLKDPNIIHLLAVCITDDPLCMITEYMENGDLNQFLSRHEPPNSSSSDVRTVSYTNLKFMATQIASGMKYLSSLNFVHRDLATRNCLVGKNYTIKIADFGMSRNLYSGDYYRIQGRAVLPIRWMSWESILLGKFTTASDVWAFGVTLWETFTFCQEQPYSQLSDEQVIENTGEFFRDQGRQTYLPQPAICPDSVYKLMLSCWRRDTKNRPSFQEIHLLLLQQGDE

[18] = target: T18, panel of 370 protein kinases (Homo sapiens, UniProt Q8WTQ7); conditions: 2 h, kinase GRK7; read-out: % Enzyme Activity (relative to DMSO controls)
T18 construct: purchased Reaction Biology Corporation (assay service)

[19] = target: T19, panel of 370 protein kinases (Homo sapiens, UniProt P30530); conditions: 2 h, kinase AXL; read-out: % Enzyme Activity (relative to DMSO controls)
T19 construct: purchased Reaction Biology Corporation (assay service)

[20] = target: T20, panel of 370 protein kinases (Homo sapiens, UniProt P42680); conditions: 2 h, kinase TEC; read-out: % Enzyme Activity (relative to DMSO controls)
T20 construct: purchased Reaction Biology Corporation (assay service)

[21] = target: T21, panel of 370 protein kinases (Homo sapiens, UniProt O14920); conditions: 2 h, kinase IKKb/IKBKB; read-out: % Enzyme Activity (relative to DMSO controls)
T21 construct: purchased Reaction Biology Corporation (assay service)

[22] = target: T22, panel of 370 protein kinases (Homo sapiens, UniProt P45984); conditions: kinase JNK2
T22 construct: purchased Reaction Biology Corporation (assay service)
T22 sequence (P45984 whole entry): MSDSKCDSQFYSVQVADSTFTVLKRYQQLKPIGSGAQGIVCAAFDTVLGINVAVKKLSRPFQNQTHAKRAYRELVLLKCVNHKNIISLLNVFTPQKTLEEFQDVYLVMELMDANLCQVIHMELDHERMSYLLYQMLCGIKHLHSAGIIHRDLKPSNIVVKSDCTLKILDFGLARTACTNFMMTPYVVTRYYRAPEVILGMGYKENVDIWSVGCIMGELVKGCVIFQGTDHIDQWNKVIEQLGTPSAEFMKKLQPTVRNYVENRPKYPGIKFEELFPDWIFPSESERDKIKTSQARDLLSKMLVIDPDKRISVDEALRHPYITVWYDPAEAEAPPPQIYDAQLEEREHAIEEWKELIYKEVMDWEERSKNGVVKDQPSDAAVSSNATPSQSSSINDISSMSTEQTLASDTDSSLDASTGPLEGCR

## CCN1CCN(C(=O)c2ccc(Nc3ncc(F)c(-c4ccc5nc(N(C)C)sc5c4)n3)nc2)CC1 [YK-2-69]
[1]
  % Enzyme Activity (relative to DMSO controls): 112.23% and 104.96%
[2]
  remaining activity at 1 µM: 91.8%
[3]
  remaining activity at 1 µM: 99.4%
[4]
  remaining activity at 1 µM: 49.6%
[5]
  remaining activity at 1 µM: 99.2%
[6]
  remaining activity at 1 µM: 94%
[7]
  remaining activity at 1 µM: 83%
[8]
  % Enzyme Activity (relative to DMSO controls): 95.92% and 87.82%
[9]
  remaining activity at 1 µM: 91.8%
[10]
  remaining activity at 1 µM: 84.8%
[11]
  remaining activity at 1 µM: 82%
[12]
  remaining activity at 1 µM: 98.5%
[13]
  % Enzyme Activity (relative to DMSO controls): 89.12% and 88.94%
[14]
  remaining activity at 1 µM: 80.6%
[15]
  remaining activity at 1 µM: 108%
[16]
  remaining activity at 1 µM: 101%
[17]
  remaining activity at 1 µM: 103%
[18]
  remaining activity at 1 µM: 102%
[19]
  remaining activity at 1 µM: 94.3%
[20]
  remaining activity at 1 µM: 107%
[21]
  remaining activity at 1 µM: 96%
[22]
  % Enzyme Activity (relative to DMSO controls): 83.83% and 82.64%
